Results on one molecule are retold here after patent US9862684B2, “Modulation of K2P channels” (The Regents of the University of California, priority 2013, dated 2018).

Molecules are shown by their SMILES.

The target of one test is T1, TREK-1 (Mus musculus, UniProt P97438).
T1 construct: expressed in transfected cells
T1 sequence (P97438 1-411 isoform P97438-2): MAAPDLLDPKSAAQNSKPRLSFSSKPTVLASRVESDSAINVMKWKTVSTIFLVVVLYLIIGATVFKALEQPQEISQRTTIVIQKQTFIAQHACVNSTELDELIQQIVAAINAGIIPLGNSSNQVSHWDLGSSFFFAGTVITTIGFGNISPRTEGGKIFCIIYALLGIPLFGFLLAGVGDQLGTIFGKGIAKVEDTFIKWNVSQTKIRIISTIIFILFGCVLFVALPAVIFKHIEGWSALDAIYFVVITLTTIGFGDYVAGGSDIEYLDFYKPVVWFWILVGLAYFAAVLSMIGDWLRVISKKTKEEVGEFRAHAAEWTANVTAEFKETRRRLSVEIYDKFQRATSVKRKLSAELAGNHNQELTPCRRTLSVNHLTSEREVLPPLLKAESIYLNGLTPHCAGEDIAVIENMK
Put plainly: Modulation of TREK-1 by select compounds (agonist activity), Table 3. The format is cell-based, Murine. The settings on record: 50 μM. The procedure: Two-electrode voltage clamp recordings were performed from defolliculated stage V-VI Xenopus oocytes 24-48 hours after injection with 0.015-6.0 ng cRNA, using microelectrodes (0.3-3.0 MΩ) filled with 3M KCl. […] Recording solutions (mM): 2K (96 NaCl, 2 KCl, 1.8 CaCl2, 2 MgCl2), 90K (90 KCl, 8 NaCl, 1.8 CaCl2, 2 MgCl2), were buffered 5 mM HEPES pH 7.4. For K2P recordings, currents we elicited by a 1 second long ramp from −150 to +50 mV from a holding potential of −80 mV (2K), or −100 to +50 mV from a holding potential of 0 mV (90K). For KCNQ2 recordings, currents were elicited by a step protocol from −120 to 60 mV, in 20 mV increments, from a holding potential of −80 mV. […] Currents were elicited by a 1 second long ramp from −150 to +50 mV from a holding potential of −80 mV.

A further test has as its target T2, purified TRAAK channels (Homo sapiens, UniProt Q9NYG8).
T2 sequence (Q9NYG8 1-393): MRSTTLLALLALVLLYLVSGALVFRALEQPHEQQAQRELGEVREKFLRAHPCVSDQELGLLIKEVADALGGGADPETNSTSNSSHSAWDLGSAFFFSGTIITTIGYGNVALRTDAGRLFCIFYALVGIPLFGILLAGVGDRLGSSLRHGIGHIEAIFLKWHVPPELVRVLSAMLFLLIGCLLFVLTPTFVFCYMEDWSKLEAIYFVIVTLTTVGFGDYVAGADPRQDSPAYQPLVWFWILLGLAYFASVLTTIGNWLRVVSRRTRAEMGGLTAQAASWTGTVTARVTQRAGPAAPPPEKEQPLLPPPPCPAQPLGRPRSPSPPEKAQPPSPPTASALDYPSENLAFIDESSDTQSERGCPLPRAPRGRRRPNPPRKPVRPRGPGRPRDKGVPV
Put plainly: UV crosslinking and labeling of purified TRAAK channel. The format is binding. The settings on record: TRAAK 3 μM, 254 nm UV 30 seconds, streptavidin-HRP detection. The procedure: FIG. 15 Crosslinking and labeling of TRAAK channel with ML67-151; crosslinking of ML67-151 to purified TRAAK channels (3 μM) following exposure to 254 nm UV light for 30 seconds; left is SDS-PAGE of purified TRAAK, top middle is streptavidin-HRP detection following addition of clickable biotin; bottom middle is Ponceau S staining
Crosslinking of ML67-151 to purified TRAAK channels (3 μM) following exposure to 254 nm UV light for 30 seconds is shown in the top middle blot of FIG. 15, including streptavidin-HRP detection following addition of clickable biotin.

Take `C#Cc1ccc(S(=O)(=O)NC(=O)CCN2c3ccc(N=[N+]=[N-])cc3C3(CCCCC3)c3cc(N=[N+]=[N-])ccc32)cc1` [ML67-151, 1-(2-azido-10-{2-[(4-ethynylbenzene-sulfonyl)carbamoyl]ethyl}-10H-spiro[acridine-9,1′-cyclohexane]-7-yl)triaza-1,2-dien-2-ium]: the “% activity at 50 μM” value on TREK-1 is “About 50% activity of ML67-33 at 50 μM”. Moreover, on purified TRAAK channels, the “crosslinking and labeling of TRAAK channel (in words)” value was “capable of crosslinking and labeling TRAAK channel”.
